Measured values as given in publication PMC10794144, “A novel antibiotic class targeting the lipopolysaccharide transporter” (Nature, 2024).
≈ marks a conversion by molar mass, not a printed value. Where two headings read alike, the source gives them in different places.

Assays:
[1] = tested on: K. pneumoniae; assay: MIC versus efflux impaired strains; format: cell-based, Klebsiella pneumoniae
Protocol: (§1) MIC determinations were performed using the broth microdilution method and in line with CLSI guidelines M07 and M100 (refs. [37],[38]). Bacterial inocula were prepared by diluting a 0.5 McFarland suspension in CAMHB or lysogeny broth (LB) specifically for A. baylyi isolates. […] MIC values of all of the tested antibiotics were read as the lowest compound concentration inhibiting bacterial growth by naked eye or beyond which the OD600 ceased to decrease.

[2] = tested on: P. aeruginosa; assay: MIC versus efflux impaired and porin deficient strains; format: cell-based, Pseudomonas aeruginosa
Protocol: as §1

[3] = tested on: A. baylyi ADP1 (ATCC 33305); assay: MIC of constructed lptF mutants in LB, OD600; format: cell-based, Acinetobacter baylyi
Protocol: as §1
Culture, genetic manipulation and MIC measurements of A. baylyi ADP1 were conducted according to previously reported procedures[56],[57].

[4] = tested on: A. baumannii MDR isolates; assay: Single-step spontaneous mutation frequency; format: cell-based, Acinetobacter baumannii
Protocol: Molten Mueller–Hinton agar (19 ml) supplemented with 20% human serum was added to 1 ml of compound at 20× the final concentration, poured immediately into Petri dishes (100 mm diameter) and gently mixed. Then, 2–3 colonies from agar plates were inoculated into CAMHB and incubated overnight under shaking (150 rpm). […] The agar plates were incubated aerobically at 35 ± 2 °C.

[5] = tested on: A. baumannii ACC01073; assay: Time–kill kinetics; format: cell-based, Acinetobacter baumannii
Protocol: Time–kill studies were performed according to the CLSI standard procedure M26-A[40]. […] A. baumannii colonies from agar plates were inoculated into CAMHB supplemented with 20% human serum and incubated overnight at 35 ± 2 °C in ambient air under shaking. The overnight culture was diluted 1:10,000 and further incubated for 2 h. A total of 5 ml of the bacterial log-phase suspension was transferred into six-well plates. […] The six-well plates were incubated at 35 ± 2 °C in ambient air under shaking (100 rpm) for 24 h, 150 μl was withdrawn at the selected timepoints (0, 2, 4, 8, 12, 16, 20 and 24 h), diluted, plated on a Mueller–Hinton agar plate and incubated overnight for CFU determination. GraphPad Prism v.8 was used for graphical presentation of the data.

## CN1C(=O)[C@H](CCCCN)NC(=O)[C@H](CCCN)NCc2cccnc2Sc2c(Cl)ccc(Cl)c2CNC(=O)[C@@H]1Cc1c[nH]c2ccccc12 [RO7075573]
[1]; K. pneumoniae 1161486a, efflux impaired, Δ acrAB
  MIC: >64 µg/mL
[1]; Klebsiella pneumoniae, K. pneumoniae 1161486, WT, read-out: MIC
  MIC: > 64 µg/mL
[2]; P. aeruginosa PAOD1, porin deficient, PAO1 Δ oprD
  MIC: >64 µg/mL
[2]; Pseudomonas aeruginosa, P. aeruginosa PAO1, WT, read-out: MIC
  MIC: > 64 µg/mL
[2]; Pseudomonas aeruginosa, P. aeruginosa PAO397, efflux impaired and porin deficient, read-out: MIC
  MIC: 64 µg/mL (≈ 86.5 µM)

## CN1C(=O)[C@H](CCCCN)NC(=O)[C@H](CCCN)NCc2cccnc2Sc2cccc(-c3ccc(C(=O)O)cc3)c2CNC(=O)[C@@H]1Cc1c[nH]c2ccccc12 [zosurabalpin]
[3]; constructed LptF (E249K&I317N)
  Fold MIC increase: > 700
[3]; constructed LptF E249K
  Fold MIC increase: 242
[3]; constructed LptF I317N
  Fold MIC increase: 128
[3]; constructed LptF K320T
  Fold MIC increase: 20
[3]; constructed LptF R322C
  Fold MIC increase: 9
[4]; A. baumannii ACC00445, inoculum 3.30E+08, selection 2xMIC, 0.5 ug/ml
  PROPORTION_R: 1.70E-07
[4]; A. baumannii ACC00445, inoculum 3.30E+08, selection 4xMIC, 1 ug/ml
  PROPORTION_R: 6.50E-08
[4]; A. baumannii ACC00445, inoculum 3.30E+08, selection 8xMIC, 2 ug/ml
  PROPORTION_R: 3.10E-09
[4]; A. baumannii ACC00445, inoculum 3.30E+08, selection 16xMIC, 4 ug/ml
  PROPORTION_R: <3.1E-09
[4]; A. baumannii ACC00535, inoculum 3.50E+08, selection 4xMIC, 0.5 ug/ml
  PROPORTION_R: 1.50E-07
[4]; A. baumannii ACC00535, inoculum 3.50E+08, selection 8xMIC, 1 ug/ml
  PROPORTION_R: 8.90E-08
[4]; A. baumannii ACC00535, inoculum 3.50E+08, selection 16xMIC, 2 ug/ml
  PROPORTION_R: <2.9E-09
[4]; A. baumannii ACC01073, inoculum 2.80E+08, selection 2xMIC, 2 ug/ml
  PROPORTION_R: 1.10E-08
[4]; A. baumannii ACC01073, inoculum 2.80E+08, selection 4xMIC, 4 ug/ml
  PROPORTION_R: 7.30E-09
[4]; A. baumannii ACC01073, inoculum 2.80E+08, selection 8xMIC, 8 ug/ml
  PROPORTION_R: <3.6E-09
[4]; A. baumannii ACC01073, inoculum 2.80E+08, selection 16xMIC, 16 ug/ml
  PROPORTION_R: <3.6E-09
[4]; A. baumannii ACC01077, inoculum 2.80E+08, selection 2xMIC, 0.5 ug/ml
  PROPORTION_R: 3.60E-09
[4]; A. baumannii ACC01077, inoculum 2.80E+08, selection 4xMIC, 1 ug/ml
  PROPORTION_R: <3.6E-09
[4]; A. baumannii ACC01077, inoculum 2.80E+08, selection 8xMIC, 2 ug/ml
  PROPORTION_R: <3.6E-09
[4]; A. baumannii ACC01077, inoculum 2.80E+08, selection 16xMIC, 4 ug/ml
  PROPORTION_R: <3.6E-09
[4]; A. baumannii ACC01085_CDC AR307, inoculum 5.50E+08, selection 2xMIC, 0.5 ug/ml
  PROPORTION_R: 1.10E-06
[4]; A. baumannii ACC01085_CDC AR307, inoculum 5.50E+08, selection 4xMIC, 1 ug/ml
  PROPORTION_R: <1.8E-09
[4]; A. baumannii ATCC BAA-747, inoculum 7.50E+07, selection 8xMIC, 0.5 ug/ml
  PROPORTION_R: <1.3E-08
[4]; A. baumannii ATCC BAA-747, inoculum 7.50E+07, selection 16xMIC, 1 ug/ml
  PROPORTION_R: <1.3E-08
[4]; A. baumannii ROB08706, inoculum 5.00E+07, selection 2xMIC, 2 ug/ml
  PROPORTION_R: 4.00E-08
[4]; A. baumannii ROB08706, inoculum 5.00E+07, selection 4xMIC, 4 ug/ml
  PROPORTION_R: 6.00E-08
[4]; A. baumannii ROB08706, inoculum 5.00E+07, selection 8xMIC, 8 ug/ml
  PROPORTION_R: <2.0E-08
[4]; A. baumannii ROB08706, inoculum 5.00E+07, selection 16xMIC, 16 ug/ml
  PROPORTION_R: <2.0E-08
[4]; A. baumannii ROB08708, inoculum 2.40E+08, selection 4xMIC, 0.5 ug/ml
  PROPORTION_R: 1.10E-07
[4]; A. baumannii ROB08708, inoculum 2.40E+08, selection 8xMIC, 1 ug/ml
  PROPORTION_R: <4.2E-09
[4]; A. baumannii ROB08708, inoculum 2.40E+08, selection 16xMIC, 2 ug/ml
  PROPORTION_R: <4.2E-09
[4]; ACC00445, 2× MIC
  Single-step spontaneous mutation frequency: 2 × 10^−7
[4]; ACC00445, 4× MIC
  Single-step spontaneous mutation frequency: 7 × 10^−8
[4]; ACC00445, 8× MIC
  Single-step spontaneous mutation frequency: 3 × 10^−9
[4]; ACC00445, 16× MIC
  Single-step spontaneous mutation frequency: <3 × 10^−9
[4]; ACC00535, 2× MIC
  Single-step spontaneous mutation frequency: 2 × 10^−7
[4]; ACC00535, 4× MIC
  Single-step spontaneous mutation frequency: 2 × 10^−7
[4]; ACC00535, 8× MIC
  Single-step spontaneous mutation frequency: 9 × 10^−8
[4]; ACC00535, 16× MIC
  Single-step spontaneous mutation frequency: <3 × 10^−9
[4]; ACC01073, 2× MIC
  Single-step spontaneous mutation frequency: 1 × 10^−8
[4]; ACC01073, 4× MIC
  Single-step spontaneous mutation frequency: 7 × 10^−9
[4]; ACC01073, 8× MIC
  Single-step spontaneous mutation frequency: <4 × 10^−9
[4]; ACC01073, 16× MIC
  Single-step spontaneous mutation frequency: <4 × 10^−9
[4]; ACC01077, 2× MIC
  Single-step spontaneous mutation frequency: 4 × 10^−9
[4]; ACC01077, 4× MIC
  Single-step spontaneous mutation frequency: <4 × 10^−9
[4]; ACC01077, 8× MIC
  Single-step spontaneous mutation frequency: <4 × 10^−9
[4]; ACC01077, 16× MIC
  Single-step spontaneous mutation frequency: <4 × 10^−9
[4]; ACC01085/AR0307, 2× MIC
  Single-step spontaneous mutation frequency: 1 × 10^−6
[4]; ACC01085/AR0307, 4× MIC
  Single-step spontaneous mutation frequency: <2 × 10^−9
[4]; ATCC BAA-747, 2× MIC
  Single-step spontaneous mutation frequency: 2 × 10^−7
[4]; ATCC BAA-747, 4× MIC
  Single-step spontaneous mutation frequency: <1 × 10^−8
[4]; ATCC BAA-747, 8× MIC
  Single-step spontaneous mutation frequency: <1 × 10^−8
[4]; ATCC BAA-747, 16× MIC
  Single-step spontaneous mutation frequency: <1 × 10^−8
[4]; ROB08706, 2× MIC
  Single-step spontaneous mutation frequency: 4 × 10^−8
[4]; ROB08706, 4× MIC
  Single-step spontaneous mutation frequency: 6 × 10^−8
[4]; ROB08706, 8× MIC
  Single-step spontaneous mutation frequency: <2 × 10^−8
[4]; ROB08706, 16× MIC
  Single-step spontaneous mutation frequency: <2 × 10^−8
[4]; ROB08708, 2× MIC
  Single-step spontaneous mutation frequency: 2 × 10^−7
[4]; ROB08708, 4× MIC
  Single-step spontaneous mutation frequency: 1 × 10^−7
[4]; ROB08708, 8× MIC
  Single-step spontaneous mutation frequency: <4 × 10^−9
[4]; ROB08708, 16× MIC
  Single-step spontaneous mutation frequency: <4 × 10^−9
[5]
  Time–kill outcome: bactericidal effect above 4× MIC
